Measured values from PubChem BioAssay AID1963863 (Molecular Pharmacology Branch, DTP, NCI, 2024).

Tested on: 931267-113-T-J1-PDC KRAS spheroid with HUVEC/MSC, viability
Test: Anticancer human tumor 931267-113-T-J1-PDC patient-derived colon adenocarcinoma cell line growth inhibition [KRAS2]
Conditions: for IC50: curve of first compound; for viability, T/C: stronger effect = lower value
Outline: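 KRAS-mutant tumor cells were grown as spheroids with HUVEC endothelial cells and human MSCs as stroma. Targeted agents were tested alone and with KRAS pathway inhibitors. Doses started at or near clinical Cmax, or 10 microM, descending half-log.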

[1] = second compound 0.1 µM, first compound 0.0316 µM
[2] = second compound 0.1 µM, first compound 0.1 µM
[3] = second compound 0.1 µM, first compound 0.316 µM
[4] = second compound 0.1 µM, first compound 1 µM
[5] = second compound 0.1 µM, first compound 3.16 µM
[6] = second compound 0.1 µM, first compound 10 µM
[7] = second compound 0.316 µM, first compound 0.0316 µM
[8] = second compound 0.316 µM, first compound 0.1 µM
[9] = second compound 0.316 µM, first compound 0.316 µM
[10] = second compound 0.316 µM, first compound 1 µM
[11] = second compound 0.316 µM, first compound 3.16 µM
[12] = second compound 0.316 µM, first compound 10 µM
[13] = second compound 1 µM, first compound 0.0316 µM
[14] = second compound 1 µM, first compound 0.1 µM
[15] = second compound 1 µM, first compound 0.316 µM
[16] = second compound 1 µM, first compound 1 µM
[17] = second compound 1 µM, first compound 3.16 µM
[18] = second compound 1 µM, first compound 10 µM
[19] = second compound 3.16 µM, first compound 0.0316 µM
[20] = second compound 3.16 µM, first compound 0.1 µM
[21] = second compound 3.16 µM, first compound 0.316 µM
[22] = second compound 3.16 µM, first compound 1 µM
[23] = second compound 3.16 µM, first compound 3.16 µM
[24] = second compound 3.16 µM, first compound 10 µM
[25] = second compound 10 µM, first compound 0.0316 µM
[26] = second compound 10 µM, first compound 0.1 µM
[27] = second compound 10 µM, first compound 0.316 µM
[28] = second compound 10 µM, first compound 1 µM
[29] = second compound 10 µM, first compound 3.16 µM
[30] = second compound 10 µM, first compound 10 µM
[31] = second compound 0.1 µM, first compound 0.00316 µM
[32] = second compound 0.1 µM, first compound 0.01 µM
[33] = second compound 0.316 µM, first compound 0.00316 µM
[34] = second compound 0.316 µM, first compound 0.01 µM
[35] = second compound 1 µM, first compound 0.00316 µM
[36] = second compound 1 µM, first compound 0.01 µM
[37] = second compound 3.16 µM, first compound 0.00316 µM
[38] = second compound 3.16 µM, first compound 0.01 µM
[39] = second compound 10 µM, first compound 0.00316 µM
[40] = second compound 10 µM, first compound 0.01 µM
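Also: compound exposure lasted 7 days before the readout.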
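For viability, T/C in this document: 100% = DMSO vehicle control viability.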

| Compound | IC50 (second compound 0.1 µM) | IC50 (second compound 0.316 µM) | IC50 (second compound 1 µM) | IC50 (second compound 3.16 µM) | IC50 (second compound 10 µM) | viability, T/C [1] | viability, T/C [2] | viability, T/C [3] | viability, T/C [4] | viability, T/C [7] | viability, T/C [8] | viability, T/C [9] | viability, T/C [10] | viability, T/C [13] | viability, T/C [14] | viability, T/C [15] | viability, T/C [19] | viability, T/C [20] | viability, T/C [25] | viability, T/C [26] | also measured |
| --- | --- | --- | --- | --- | --- | --- | --- | --- | --- | --- | --- | --- | --- | --- | --- | --- | --- | --- | --- | --- | --- |
| CC(C)NCC(C(=O)N1CCN(c2ncnc3c2C(C)CC3O)CC1)c1ccc(Cl)cc1 (stereo not given) + CC1OCC2(CCN(c3cnc(Sc4ccnc(N)c4Cl)c(N)n3)CC2)C1N | 3560 nM | 3720 nM | 5160 nM | 1850 nM | 2270 nM | 78.8% | 71.7% | 87% | 64.4% | 86.4% | 73.5% | 81.7% | 75.2% | 95% | 56.9% | 75.5% | 78.2% | 77.3% | 73.8% | 67.9% | viability, T/C [5]: 53.3%; viability, T/C [6]: 37.3%; viability, T/C [11]: 53%; viability, T/C [12]: 32.2%; viability, T/C [16]: 59.4%; viability, T/C [17]: 63.7%; viability, T/C [18]: 39%; viability, T/C [21]: 74.4%; viability, T/C [22]: 56.3%; viability, T/C [23]: 44.6%; viability, T/C [24]: 35%; viability, T/C [27]: 76.7%; viability, T/C [28]: 52.8%; viability, T/C [29]: 48.8%; viability, T/C [30]: 22.5% |
| CCN1CCN(Cc2ccc(Nc3ncc(F)c(-c4cc(F)c5nc(C)n(C(C)C)c5c4)n3)nc2)CC1 + CC1OCC2(CCN(c3cnc(Sc4ccnc(N)c4Cl)c(N)n3)CC2)C1N | 27.3 nM | 32.8 nM | 41.2 nM | 68.8 nM | 201 nM | 43.5% | 51.4% | 53.7% | 36.9% | 50.3% | 43.3% | 45.1% | 37.5% | 53.1% | 41.4% | 42% | 54.4% | 43.6% | 52.9% | 58.7% | viability, T/C [31]: 75.4%; viability, T/C [32]: 58.2%; viability, T/C [33]: 63%; viability, T/C [34]: 91.7%; viability, T/C [35]: 69.5%; viability, T/C [36]: 82%; viability, T/C [16]: 35.3%; viability, T/C [37]: 71.5%; viability, T/C [38]: 70.2%; viability, T/C [21]: 40.8%; viability, T/C [22]: 23.8%; viability, T/C [39]: 70.6%; viability, T/C [40]: 79.1%; viability, T/C [27]: 49%; viability, T/C [28]: 9.83% |
| CCNC(=O)CC1N=C(c2ccc(Cl)cc2)c2cc(OC)ccc2-n2c(C)nnc21 (stereo not given) + CC1OCC2(CCN(c3cnc(Sc4ccnc(N)c4Cl)c(N)n3)CC2)C1N | 536 nM | 316 nM | 468 nM | 586 nM | 563 nM | 80.7% | 90.4% | 51.9% | 46.6% | 80.4% | 60.5% | 58.7% | 27.4% | 69.7% | 68.5% | 51.5% | 78.1% | 59.7% | 87.2% | 73.4% | viability, T/C [5]: 30.4%; viability, T/C [6]: 27.6%; viability, T/C [11]: 34.6%; viability, T/C [12]: 21.6%; viability, T/C [16]: 40.7%; viability, T/C [17]: 31%; viability, T/C [18]: 15.8%; viability, T/C [21]: 70.8%; viability, T/C [22]: 33%; viability, T/C [23]: 22.1%; viability, T/C [24]: 13.4%; viability, T/C [27]: 60.3%; viability, T/C [28]: 40.5%; viability, T/C [29]: 25.8%; viability, T/C [30]: 14.2% |
| Cn1ncnc1[C@H]1c2n[nH]c(=O)c3cc(F)cc(c23)N[C@@H]1c1ccc(F)cc1 + CC1OCC2(CCN(c3cnc(Sc4ccnc(N)c4Cl)c(N)n3)CC2)C1N | > 100 nM | > 100 nM | > 100 nM | > 100 nM | > 100 nM | 90.3% | 80.5% | – | – | 60.8% | 68.4% | – | – | 70.3% | 51.2% | – | 91.4% | 69.7% | 71% | 51% | viability, T/C (second compound 0.1 µM, first compound 0.000316 µM): 93.9%; viability, T/C (second compound 0.1 µM, first compound 0.001 µM): 97.8%; viability, T/C [31]: 89.2%; viability, T/C [32]: 89.3%; viability, T/C (second compound 0.316 µM, first compound 0.000316 µM): 84%; viability, T/C (second compound 0.316 µM, first compound 0.001 µM): 91.4%; viability, T/C [33]: 91.2%; viability, T/C [34]: 78.9%; viability, T/C (second compound 1 µM, first compound 0.000316 µM): 85.8%; viability, T/C (second compound 1 µM, first compound 0.001 µM): 85.3%; viability, T/C [35]: 85.4%; viability, T/C [36]: 95.2%; viability, T/C (second compound 3.16 µM, first compound 0.000316 µM): 83.7%; viability, T/C (second compound 3.16 µM, first compound 0.001 µM): 93.5%; viability, T/C [37]: 84.7%; viability, T/C [38]: 80.6%; viability, T/C (second compound 10 µM, first compound 0.000316 µM): 77.6%; viability, T/C (second compound 10 µM, first compound 0.001 µM): 73.5%; viability, T/C [39]: 85.3%; viability, T/C [40]: 77.8% |
